From EP2955179A1, “CONDENSED HETEROCYCLIC COMPOUND” (Sumitomo Chemical Company Limited, priority 2013, dated 2014) come the findings set out here.

Molecules are shown by their SMILES. Like-named read-outs stand apart in the source and are kept apart here.

Holding throughout (assay type): in vivo
One assay deals with Plutella xylostella. As to the kind of experiment: Test Example 6: spray on cabbage, Plutella xylostella larvae released. The settings on record: 120 h, read-out: death rate. How it is done:
On the other hand, on cabbage at the third leaf stage planted in a polyethylene cup was sprayed, at a rate 20 mL/cup, the test drug solution. After the drug solution was dried, the foliage part was cut off, and then placed in a 50 mL volume cup. Five second instar larvae of Plutella xylostella were released into the cup, and the cup was sealed with a lid. After the cup was kept at 25°C for 5 days, the number of dead insects was counted. The death rate was calculated according to the following equation. Death rate (%) = (Number of dead insects/Number of tested insects) × 100 [formula]

The next assay has as its system Musca domestica. As to the kind of experiment: whole plant or invertebrate. The conditions noted are these: 24 h, read-out: death rate. On the procedure: The formulations of Compounds of Present Invention 1-1, 1-40 and 1-42 as obtained in Formulation Example 5 were diluted with water, so as to have a concentration of the active ingredient of 500 ppm, to prepare a test drug solution.
A filter paper having a diameter of 5.5 cm was spread on the bottom of a polyethylene cup having the same diameter and 0.7 ml of the test drug solution was added dropwise onto the filter paper, and 30 mg of sucrose was uniformly placed as bait. Into the polyethylene cup, 10 female imagoes of Musca domestica were released, and the cup was sealed with a lid. After 24 hours, the life and death of Musca domestica was examined, the number of dead insects was counted, and the death rate was calculated according to the following equation. Death rate (%) = (Number of dead insects/Number of tested insects) × 100 [formula]

The test system of a further assay is Culex pipiens pallens. As to the kind of experiment: Test Example 10: Culex pipiens pallens larvae in treated water. The conditions noted are these: 24 h, read-out: death rate. From the text: 20 last-instar larvae of Culex pipiens pallens were released into the solution. One day later, the life and death of the Culex pipiens pallens was examined, and the number of dead insects was counted to calculate the death rate. Death rate (%) = (Number of dead insects/Number of tested insects) × 100 [formula]

Assay [1] concerns Haemaphysalis longicornis. As to the kind of experiment: Test Example 11: coated screw tube contact test, Haemaphysalis longicornis ticks. The conditions noted are these: 48 h, 2 mg compound in 0.2 mL acetone coated on inner wall of screw tube, unfed nymphal ticks, after 2 days, read-out: death rate. On the procedure: 2 mg of each of Compounds of Present Invention 1-5, 1-24, 1-32 to 1-33, and 1-36 was weighed in a screw tube (Maruemu No. 5; 27 × 55 mm), 0.2 mL of acetone was added thereto, and the screw tube was sealed with a cap to dissolve the compound. The screw tube was rotated and inverted to uniformly coat the drug solution onto the whole inner wall of the tube. After removing the cap, the solution was air-dried for about 2 hours, then unfed nymphal ticks, Haemaphysalis longicornis (5 ticks/group) were released, and the tube was sealed with the cap. After 2 days, the number of dead insects was counted, and the death rate was calculated according to the following equation. Death rate (%) = (Number of dead insects/Number of tested insects) × 100 [formula]

Assay [2] relates to Nilaparvata lugens. As to the kind of experiment: Test Example 4: drench at foot of rice seedling, Nilaparvata lugens larvae released. The conditions noted are these: active ingredient 500 ppm, 5 ml drench at foot of rice seedling, 7 days at 25°C, then third-fourth instar larvae kept 6 days; for mortality at 500 ppm: Nilaparvata lugens, soil, 144 h, read-out: control value.
The subject of assay [3] is Adoxophyes orana fasciata. The assay is described as follows: Test Example 7: spray on apple tree, Adoxophyes orana fasciata larvae released. The conditions noted are these: in Malus domestica, 168 h, active ingredient 500 ppm, 20 mL/cup sprayed on apple tree, first-instar larvae, after 7 days, read-out: death rate. On the procedure:
The formulations of Compounds of Present Invention 1-1 to 1-6, 1-10, 1-21, 1-28, 1-31 to 1-34, 1-39 and 1-42 as obtained in Formulation Example 5 were diluted with water, so as to have a concentration of the active ingredient of 500 ppm, to prepare a test spray solution.
On the other hand, an apple tree was planted in a plastic cup, and grown until the seventh-eighth true leaf was spread. To the apple tree was sprayed, at a rate of 20 mL/cup, the test drug solution. After the drug solution was dried, 60 first-instar larvae of Adoxophyes orana fasciata were released, and covered with a plastic cup the bottom of which was cut off and on which a filter paper was put, with the plastic cup cover placed upside-down. After 7 days, the number of dead insects was counted, and the death rate was calculated according to the following equation. Death rate (%) = (Number of dead insects/Number of tested insects) × 100 [formula]

In assay [4] the test system is Aphis gossypii. As to the kind of experiment: Test Example 2: drench at foot of cucumber seedling, later inoculated with Aphis gossypii. The conditions noted are these: soil, 144 h, active ingredient 500 ppm, 5 ml drench at foot of cucumber seedling, 7 days at 25°C, then inoculated and kept 6 days, read-out: control value. On the procedure:
(§1) On the other hand, a cucumber seedling (the second true leaf stage) planted in a plastic cup was drenched at its foot with 5 ml of the test drug solution, and kept in a greenhouse at 25°C for 7 days. On the cucumber leaf surface was inoculated about 30 Aphis gossypii (whole stage), and further kept in the greenhouse for 6 days, then the number of surviving Aphis gossypii parasitic on the leaves of the cucumber was examined, and the control value was calculated according to the following equation: Control value (%) = {1-(Cb×Tai)/(Cai×Tb)} × 100 [formula] wherein the symbols represent as follows: • Cb: the number of insects in a non-treated section before treatment • Cai: the number of surviving parasitic insects in a non-treated section on observation • Tb: the number of insects in a treated section before treatment • Tai: the number of surviving parasitic insects in a treated section on observation • wherein the non-treated section refers to a section where the test drug solution prepared by diluting the formulation obtained as in Formulation Example 5 but not containing the compound of the present invention with the same amount of water as in the treated section was sprayed.

Assay [5] concerns Aphis gossypii. As to the kind of experiment: Test Example 1: foliar spray on cucumber seedling inoculated with Aphis gossypii. The settings on record: 144 h, active ingredient 500 ppm, 20 ml sprayed on cucumber seedling, six days after spraying, read-out: control value. How it is done: as §1, with “hand, on” for “hand,”, “first” for “second”, “inoculated” for “drenched at its foot”, “with” for “with 5 ml of the test drug solution, and kept in a greenhouse at 25°C for 7 days. On the cucumber leaf surface was inoculated”, “left for a day. 20 ml of” for “further kept in”, “test drug solution was sprayed on the seedling. Six days after spraying,” for “greenhouse for 6 days, then”

In assay [6] the test system is Nilaparvata lugens. As to the kind of experiment: Test Example 3: spray on rice seedling, Nilaparvata lugens larvae released. The conditions noted are these: 144 h, active ingredient 500 ppm, 10 ml sprayed on rice seedling, third-fourth instar larvae, after 6 days, read-out: control value.
[7] abbreviates: active ingredient 500 ppm, 20 mL/cup sprayed on cabbage, second instar larvae, 25°C for 5 days.
[8] abbreviates: active ingredient concentration 3.5 ppm in ion-exchanged water, last-instar larvae, one day later.

As for `CCS(=O)(=O)c1cc(C(=O)OC)cnc1-c1nc2cc(C(F)(F)F)cnc2n1C` [Compound of Present Invention 1-1, methyl 5-ethylsulfonyl-6-(3-methyl-6-trifluoromethyl-3H-imidazo[4,5-b]pyridin-2-yl)nicotinate], the mortality at 500 ppm in the assay with Plutella xylostella (setting [7]) is no less than 80%; with Musca domestica, 100%. Moreover, the mortality at 3.5 ppm in the assay with Culex pipiens pallens (setting [8]) was no less than 95%. With `CCCOC(=O)c1cnc(-c2nc3cc(C(F)(F)F)cnc3n2C)c(S(=O)(=O)CC)c1` [Compound of Present Invention 1-4, propyl 5-ethylsulfonyl-6-(3-methyl-6-trifluoromethyl-3H-imidazo[4,5-b]pyridin-2-yl)nicotinate], in the assay on Plutella xylostella (setting [7]), the mortality at 500 ppm is no less than 80%. Regarding `CCS(=O)(=O)c1cc(C(=O)OC(C)(C)C)cnc1-c1nc2cc(C(F)(F)F)cnc2n1C` [Compound of Present Invention 1-5, tert-butyl 5-ethylsulfonyl-6-(3-methyl-6-trifluoromethyl-3H-imidazo[4,5-b]pyridin-2-yl)nicotinate], the mortality at 2 mg/tube, 2 mg/tube in assay [1] came out at 100%.

For `CCS(=O)(=O)c1cc(C(=O)N(C)C)cnc1-c1nc2cc(C(F)(F)F)cnc2n1C` [Compound of Present Invention 1-6, 5-ethylsulfonyl-N,N-dimethyl-6-(3-methyl-6-trifluoromethyl-3H-imidazo[4,5-b]pyridin-2-yl)nicotinamide], the mortality at 500 ppm with Nilaparvata lugens [2] is no less than 90%; with Plutella xylostella (setting [7]), no less than 80%. Further, in the assay with Culex pipiens pallens (setting [8]), the mortality at 3.5 ppm was no less than 95%.

On to `CCS(=O)(=O)c1cc(C(=O)NN(C)C)cnc1-c1nc2cc(C(F)(F)F)cnc2n1C` [Compound of Present Invention 1-7, 5-ethylsulfonyl-N',N'-dimethyl-6-(3-methyl-6-trifluoromethy 1-3H-imidazo[4,5-b]pyridin-2-yl)nicotinic acid hydrazide], for which, in the assay with Plutella xylostella, the mortality at 500 ppm was no less than 80%. The mortality at 3.5 ppm in the assay with Culex pipiens pallens was no less than 95%. For the compound `CCS(=O)(=O)c1cc(C(=O)N2CCCC2)cnc1-c1nc2cc(C(F)(F)F)cnc2n1C` [Compound of Present Invention 1-8, 5-ethylsulfonyl-6-(3-methyl-6-trifluoromethyl-3H-imidazo[4,5-b]pyridin-2-yl)nicotinoylpyrrolidine], the control value in the assay with Nilaparvata lugens [2] is no less than 90%.

Take `CCS(=O)(=O)c1cc(C(=O)NC(C)(C)C)cnc1-c1nc2cc(C(F)(F)F)cnc2n1C` [Compound of Present Invention 1-10, N-tert-butyl-5-ethylsulfonyl-6-(3-methyl-6-trifluoromethyl-3H-imidazo[4,5-b]pyridin-2-yl)nicotinamide]: the mortality at 500 ppm was no less than 90% in the assay on Nilaparvata lugens [2], no less than 80% in the assay on Plutella xylostella (setting [7]) and no less than 90% in [3]. With `CCS(=O)(=O)c1cc(C(=O)N2CCOCC2)cnc1-c1nc2cc(C(F)(F)F)cnc2n1C` [Compound of Present Invention 1-13], in the assay with Aphis gossypii [4], the mortality at 500 ppm is no less than 90%. Also, the mortality at 3.5 ppm in the assay on Culex pipiens pallens (setting [8]) is no less than 95%. Turning to `CCS(=O)(=O)c1cc(C(=O)N(C)OC)cnc1-c1nc2cc(C(F)(F)F)cnc2n1C` [Compound of Present Invention 1-18, 5-ethylsulfonyl-N-methoxy-N-methyl-6-(3-methyl-6-trifluoromethyl-3H-imidazo[4,5-b]pyridin-2-yl)nicotinamide], the mortality at 500 ppm in the assay with Aphis gossypii [5], in the assay with Aphis gossypii [4] and in the assay on Nilaparvata lugens [6] was no less than 90% each time.

On to `CCS(=O)(=O)c1cc(C(=O)Nc2ccc(Cl)cc2)cnc1-c1nc2cc(C(F)(F)F)cnc2n1C` [Compound of Present Invention 1-20], for which the mortality at 3.5 ppm with Culex pipiens pallens (setting [8]) is no less than 95%. Consider `CCS(=O)(=O)c1cc(C(C)=O)cnc1-c1nc2cc(C(F)(F)F)cnc2n1C` [Compound of Present Invention 1-21, 2-(5-acetyl-3-ethylsulfonylpyridin-2-yl)-3-methyl-6-trifluo romethyl-3H-imidazo[4,5-b] pyridine], for which the mortality at 500 ppm (with Aphis gossypii [5]; in the assay with Aphis gossypii [4]; in assay [3]) was no less than 90% in each case. `CCS(=O)(=O)c1cc(C(=O)NC2CC2)cnc1-c1nc2cc(C(F)(F)F)cnc2n1C` [Compound of Present Invention 1-24]: in assay [1], the mortality at 2 mg/tube, 2 mg/tube was found to be 100%. With `CCS(=O)(=O)c1cc(C(=O)OCC(F)(F)F)cnc1-c1nc2cc(C(F)(F)F)cnc2n1C` [Compound of Present Invention 1-28], the mortality at 500 ppm in assay [3] is no less than 90%. The mortality at 3.5 ppm in the assay on Culex pipiens pallens (setting [8]) was no less than 95%. On to `CCS(=O)(=O)c1cc(C(=O)OCc2ccccc2)cnc1-c1nc2cc(C(F)(F)F)cnc2n1C` [Compound of Present Invention 1-32], for which the mortality at 3.5 ppm in the assay on Culex pipiens pallens (setting [8]) was no less than 95%. The mortality at 2 mg/tube, 2 mg/tube in [1] is 100%. Regarding `CCS(=O)(=O)c1cc(C(=O)OCCOC)cnc1-c1nc2cc(C(F)(F)F)cnc2n1C` [Compound of Present Invention 1-33], in assay [1], the mortality at 2 mg/tube, 2 mg/tube turned out to be 100%.

Consider `CCS(=O)(=O)c1cc(C(=O)NC2CSC2)cnc1-c1nc2cc(C(F)(F)F)cnc2n1C` [Compound of Present Invention 1-36], for which the mortality at 2 mg/tube, 2 mg/tube in assay [1] turned out to be 100%. As to `CCOC(=O)c1cnc(-c2nc3cc([S+]([O-])C(F)(F)F)ccc3o2)c(S(=O)(=O)CC)c1` (centres unmarked) [Compound of Present Invention 1-39], the mortality at 500 ppm in the assay on Plutella xylostella (setting [7]) was no less than 80%; in [3], no less than 90%. For the same compound, the mortality at 3.5 ppm in the assay with Culex pipiens pallens (setting [8]) was no less than 95%.

In the case of `CCS(=O)(=O)c1cc(C(N)=O)cnc1-c1nc2cc([S+]([O-])C(F)(F)F)ccc2o1` (centres unmarked) [Compound of Present Invention 1-41], the mortality at 500 ppm in the assay with Plutella xylostella (setting [7]) is no less than 80%. For the same compound, the mortality at 3.5 ppm in the assay on Culex pipiens pallens (setting [8]) is no less than 95%.
